Measurements: PubChem BioAssay (NCI)
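Protocol summary: plate cells (96-well), add compound at 5 concentrations, incubate 48 h, interpolate endpoints linearly. TGI: concentration producing complete growth inhibition.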

Key:
Assay in all cases: NCI anticancer screen, dose series, 48 h
SN12C renal = test system: SN12C renal
DU-145 prostate = test system: DU-145 prostate
HL-60(TB) leukemia = test system: HL-60(TB) leukemia
KM12 colon = test system: KM12 colon
A498 renal = test system: A498 renal
ACHN renal = test system: ACHN renal
NCI-H522 lung = test system: NCI-H522 lung
EKVX NSCLC = test system: EKVX NSCLC
PC-3 prostate = test system: PC-3 prostate
MDA-N = test system: MDA-N
K-562 leukemia = test system: K-562 leukemia
HCT-15 colon = test system: HCT-15 colon
NCI/ADR-RES ovarian = test system: NCI/ADR-RES ovarian
UACC-257 melanoma = test system: UACC-257 melanoma
NCI-H460 lung = test system: NCI-H460 lung
U251 CNS = test system: U251 CNS
HS 578T breast = test system: HS 578T breast
HCT-116 colon = test system: HCT-116 colon
MDA-MB-435 = test system: MDA-MB-435
SF-268 CNS = test system: SF-268 CNS
SK-MEL-2 melanoma = test system: SK-MEL-2 melanoma
LOX IMVI melanoma = test system: LOX IMVI melanoma
OVCAR-8 ovarian = test system: OVCAR-8 ovarian
IGROV1 ovarian = test system: IGROV1 ovarian
SW-620 colon = test system: SW-620 colon
M14 melanoma = test system: M14 melanoma
HT29 colon = test system: HT29 colon
OVCAR-4 ovarian = test system: OVCAR-4 ovarian
786-0 renal = test system: 786-0 renal
HOP-62 NSCLC = test system: HOP-62 NSCLC
NCI-H23 lung = test system: NCI-H23 lung
RPMI-8226 leukemia = test system: RPMI-8226 leukemia
SF-295 CNS = test system: SF-295 CNS
BT-549 breast = test system: BT-549 breast
TK-10 renal = test system: TK-10 renal
SK-OV-3 ovarian = test system: SK-OV-3 ovarian
SK-MEL-5 melanoma = test system: SK-MEL-5 melanoma
SNB-19 CNS = test system: SNB-19 CNS
SNB-75 CNS = test system: SNB-75 CNS
A549 NSCLC = test system: A549 NSCLC
UO-31 renal = test system: UO-31 renal
HOP-92 NSCLC = test system: HOP-92 NSCLC
MOLT-4 leukemia = test system: MOLT-4 leukemia
SK-MEL-28 melanoma = test system: SK-MEL-28 melanoma
NCI-H226 lung = test system: NCI-H226 lung
MDA-MB-231 breast = test system: MDA-MB-231 breast
CAKI-1 renal = test system: CAKI-1 renal
OVCAR-3 ovarian = test system: OVCAR-3 ovarian
HCC-2998 colon = test system: HCC-2998 colon
MALME-3M melanoma = test system: MALME-3M melanoma
MCF7 breast = test system: MCF7 breast
RXF 393 renal = test system: RXF 393 renal
SF-539 CNS = test system: SF-539 CNS
T-47D breast = test system: T-47D breast
COLO 205 colon = test system: COLO 205 colon
SR leukemia = test system: SR leukemia
OVCAR-5 ovarian = test system: OVCAR-5 ovarian
CCRF-CEM leukemia = test system: CCRF-CEM leukemia
UACC-62 melanoma = test system: UACC-62 melanoma

Measured: TGI

O=C(OCCNC(=O)N1CC1)OCCNC(=O)N1CC1
> 10 µM: SN12C renal | DU-145 prostate | HL-60(TB) leukemia | KM12 colon | A498 renal | ACHN renal | NCI-H522 lung | EKVX NSCLC | PC-3 prostate | MDA-N | K-562 leukemia | HCT-15 colon | NCI/ADR-RES ovarian | UACC-257 melanoma | NCI-H460 lung | U251 CNS | HS 578T breast | HCT-116 colon | MDA-MB-435 | SF-268 CNS | SK-MEL-2 melanoma | LOX IMVI melanoma | OVCAR-8 ovarian | IGROV1 ovarian | SW-620 colon | M14 melanoma | HT29 colon | OVCAR-4 ovarian | 786-0 renal | HOP-62 NSCLC | NCI-H23 lung | RPMI-8226 leukemia | SF-295 CNS | BT-549 breast | TK-10 renal | SK-OV-3 ovarian | SK-MEL-5 melanoma | SNB-19 CNS | SNB-75 CNS | A549 NSCLC | UO-31 renal | HOP-92 NSCLC | MOLT-4 leukemia | SK-MEL-28 melanoma | NCI-H226 lung | MDA-MB-231 breast | CAKI-1 renal | OVCAR-3 ovarian | HCC-2998 colon | MALME-3M melanoma | MCF7 breast | RXF 393 renal | SF-539 CNS | T-47D breast | COLO 205 colon | SR leukemia | OVCAR-5 ovarian | CCRF-CEM leukemia | UACC-62 melanoma
